In EP3705574A1, “SPLIT LUCIFERASE, AND HIGHLY SENSITIVE VITAMIN D RECEPTOR LIGAND DETECTION METHOD USING SAME” (Public University Corporation Toyama Prefectural University, priority 2017, dated 2019):

Key:
[1] = system: double molecular type N29+N31 biosensor (6×His LBD(121-427 aa)-SmBiT + 6×His LgBiT-NHPMLMNLLKDN)
Experimental: Several of the obtained E.coli colony were selected, inoculated into 2 mL of LB liquid culture medium (containing 100 µg/mL of ampicillin), and shaking culture was performed at 37°C and 200 rpm for 12 hours. 2 mL of E.coli solution was succeeded in 500 mL of LB liquid culture medium (containing 100 µg/mL of ampicillin) and cultivated at 37°C to OD600=0.4, and then 1 mM isopropyl-1-thio-β-D-galactopyranoside [IPTG (NACALAI TESQUE, INC.) was added and cultivated at 15°C for 3 hours to express proteins. After cultivation, centrifugal separation was performed at 4°C, 5000×g for 10 minutes to collect bacterial cells. Bacterial bodies were suspended in the solution containing 25 mM Tris-HCl, pH 7.4, 10 mM DTT, and protease cocktails of inhibitor (NACALAI TESQUE, Inc.) and then ultrasonic crushing was performed in ice for 15 sec×7 times. Thereafter, centrifugal separation was performed at 4°C, 20,000×g for 30 minutes, and supernatant was collected to obtain biosensor protein solutions N29, N30, N31 and N32.
Thereafter, 10 µl of light emission substrate solution (Nano-Glo Live Cell Assay System, Promega) was added and measured. Ethanol (EtOH) brought in, which is used as a solvent for VDR ligand, was at a final concentration of 1%. Microplate reader Infinite 200 Pro (TECAN) was used as an instrument for measuring light emission.
After plating double molecular type N29+N31 to 96 well plate, 0-50 nM of 25(OH)D3 was added and incubated for 10 minutes at room temperature.
After plating double molecular type N29+N31 to 96 well plate, 0-10 nM of 25(OH)D3 was added and incubated for 10 minutes at room temperature.
After plating double molecular type N29+N31 to 96 well plate, 0-10000 nM calcitroic acid was added and incubated for 10 minutes at room temperature.

[2] = target: T1, LucN-NHPMLMNLLKDN-(GGGGS)×3-LBD-LucC biosensor (split firefly luciferase, LXXLL sequence, hVDR LBD 121-427 aa) (Homo sapiens, UniProt P11473); assay: Luciferase light emission in COS-7 cells expressing single molecular type biosensor; assay type: cell-based; conditions: 0-1000 nM added, relative light intensity after 90 minutes
T1 construct: expressed in transfected cells; host or cells: COS-7
T1 sequence (P11473 121-427): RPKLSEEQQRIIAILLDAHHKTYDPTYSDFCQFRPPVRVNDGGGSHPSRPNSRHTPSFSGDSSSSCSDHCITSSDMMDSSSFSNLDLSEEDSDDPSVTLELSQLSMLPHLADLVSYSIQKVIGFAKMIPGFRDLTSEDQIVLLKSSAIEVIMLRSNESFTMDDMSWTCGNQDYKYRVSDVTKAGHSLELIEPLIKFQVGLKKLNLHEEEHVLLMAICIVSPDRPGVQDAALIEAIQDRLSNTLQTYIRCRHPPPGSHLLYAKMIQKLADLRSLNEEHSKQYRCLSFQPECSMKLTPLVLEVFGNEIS

Detection limit ([1]; 0-10 nM 25(OH)D3, 10 minutes after light emission substrate solution, in vitro) [pM]	concentration reaching maximal increase of light emission ([1]; 0-50 nM 25(OH)D3, in vitro)	relative change of light emission ([1]; nanoluciferase biosensor protein, 10 min, 1 pM)	concentration reaching maximal light emission [2] [nM]	concentration required for increasing light emission ([1]; 0-10000 nM calcitroic acid, 10 minutes after light emission substrate solution, in vitro) [nM]	VDR affinity relative to 1α,25(OH)2D3 ([1]; stated with the N29+N31 biosensor evaluation)	Structure (SMILES)
1	around 50 nM	about 1.5 fold	1000			C=C1CC[C@H](O)C/C1=C/C=C1\CCC[C@]2(C)[C@@H]([C@H](C)CCCC(C)(C)O)CC[C@@H]12 [25(OH)D3, 25 hydroxyvitamin D3]
				≥ 10	1/1000	C=C1/C(=C\C=C2/CCC[C@]3(C)[C@@H]([C@H](C)CC(=O)O)CC[C@@H]23)C[C@@H](O)C[C@@H]1O [calcitroic acid]
